Assay results as given in patent US20090192298A1, “Through-bond energy transfer cassettes, systems and methods” (priority 2007, published 2009).

Columns and labels:
Format in all cases: physicochemical
[1] = Spectral Properties of 9 in CH2Cl2, Table 3; parameters: emax: unit not given beside the values; conditions: for Ff: Rhodamine 101 in EtOH as the standard
[2] = Spectral properties (absorbance, fluorescence, quantum yield) of sulfonated BODIPY dyes 6, Table 1; conditions: for F: Fluorescein in 0.1M NaOH as standard
Source text: A fluorophore, according to some embodiments of the disclosure, may have a high extinction coefficient and/or a sharp, intense fluorescence emission (e.g., rivaling that of the BODIPY dyes). A fluorophore may also have single molecule detection capacity.

[3] = Fluorescence properties of water-soluble Nile Blue derivatives in aqueous media; conditions: for quantum yields versus I and J: pH 7.4 in aqueous media; for fwmh less than reported water-soluble Nile Blue derivatives: phosphate buffer pH 7.4, versus I and J
Source text: A dye may include, in some embodiments, one or more of Nile Blue derivatives 17-20 (FIG. 11).

[4] = Water solubility of through-bond energy transfer cassettes
[5] = 0.1M lithium phosphate buffer (pH = 7.4)

| SMILES | If [1] | Imax [1] | emax [1] | fwhm (full width at half-maximum height) [1] | Ff [1] | Imax abs ([2]; solvent MeOH) | Imax emiss ([2]; solvent MeOH) | e ([2]; solvent MeOH) | fwhm ([2]; solvent MeOH) | F ([2]; solvent MeOH) | other results |
| --- | --- | --- | --- | --- | --- | --- | --- | --- | --- | --- | --- |
| COc1ccc(C2=[N+]3C(=Cc4c(C)cc(C)n4[B-]3(F)F)C(=O)N2C)cc1 [6d] | – | – | – | – | – | 493 nm | 521 nm | 51269 M⁻¹ cm⁻¹ | 38 nm | 0.85 ± 0.03 | – |
| Cc1cc(C)n2c1C=C1C(=O)NC(c3ccccc3)=[N+]1[B-]2(F)F [6e] | – | – | – | – | – | 495 nm | 531 nm | 37867 M⁻¹ cm⁻¹ | 48 nm | 0.80 ± 0.01 | – |
| Cc1cc(C)n2c1C=C1C(=O)N(C)C(c3ccc([N+](=O)[O-])cc3)=[N+]1[B-]2(F)F [6f] | – | – | – | – | – | 492 nm | 598 nm | 44003 M⁻¹ cm⁻¹ | 120 nm | 0.0004 | Imax abs ([2]; solvent Hexanes): 498 nm; Imax emiss ([2]; solvent Hexanes): 587 nm; fwhm ([2]; solvent Hexanes): 53 nm; F ([2]; solvent Hexanes): 0.53 ± 0.01 |
| Cc1c(S(=O)(=O)[O-])c(C)n2c1C=C1C(=O)N(C)C(c3ccc(I)cc3)=[N+]1[B-]2(F)F.[Na+] [6g] | – | – | – | – | – | 488 nm | 531 nm | 48132 M⁻¹ cm⁻¹ | 53 nm | 0.88 ± 0.01 | Imax abs [2, 5]: 481 nm; Imax emiss [2, 5]: 518 nm; e [2, 5]: 46461 M⁻¹ cm⁻¹; fwhm [2, 5]: 50 nm; F [2, 5]: 0.87 ± 0.01 |
| Cc1c(S(=O)(=O)O)c(C)n2c1C=C1C(=O)N(C)C(c3ccc(C#CCCCC(=O)O)cc3)=[N+]1[B-]2(F)F [6h] | – | – | – | – | – | 488 nm | 538 nm | 35024 M⁻¹ cm⁻¹ | 58 nm | 0.84 ± 0.01 | Imax abs [2, 5]: 482 nm; Imax emiss [2, 5]: 526 nm; e [2, 5]: 34766 M⁻¹ cm⁻¹; fwhm [2, 5]: 56 nm; F [2, 5]: 0.82 ± 0.01 |
| O=S(=O)([O-])C(F)(F)F.c1cc2c(N3CCCCC3)c3ccc(=[N+]4CCCCC4)cc-3oc2cc1N1CCCCC1 [9a] | 562 nm | 491 nm | 60409 | 55 nm | 0.14 ± 0.01 | – | – | – | – | – | – |
| COC(=O)C1CCN(c2ccc3c(N4CCCCC4)c4ccc(=[N+]5CCC(C(=O)OC)CC5)cc-4oc3c2)CC1.O=S(=O)([O-])C(F)(F)F (centres unmarked) [9f] | 552 nm | 482 nm | 54908 | 47 nm | 0.02 ± 0.001 | – | – | – | – | – | – |
| CCN(CCCS(=O)(=O)O)c1ccc2nc3c4cc(O)ccc4c(=NCCCS(=O)(=O)O)cc-3oc2c1.Cl [compound 17] | – | – | – | – | – | – | – | – | – | – | quantum yields versus I and J [3]: improved quantum yields; fwmh less than reported water-soluble Nile Blue derivatives [3]: 20 nm |
| Cl.O=C(O)CCN(CCC(=O)O)c1ccc2nc3c4cc(O)ccc4c(=NCCCS(=O)(=O)O)cc-3oc2c1 [compound 18] | – | – | – | – | – | – | – | – | – | – | quantum yields versus I and J [3]: improved quantum yields; fwmh less than reported water-soluble Nile Blue derivatives [3]: 20 nm |
| COc1ccccc1C1=[N+]2C(=C(c3ccc(-c4cn(-c5ccc(C6=C7C(C)=C(S(=O)(=O)[O-])C(C)=[N+]7[B-](F)(F)n7c(C)c(S(=O)(=O)[O-])c(C)c76)cc5)nn4)cc3OCC(=O)O)c3ccc(-c4ccccc4OC)n3[B-]2(F)F)C=C1.[Na+].[Na+] [compound 22] | – | – | – | – | – | – | – | – | – | – | water solubility [4]: water soluble |

Now from value to compound, other results behind:

| If [1] | Imax [1] | emax [1] | fwhm (full width at half-maximum height) [1] | Ff [1] | Imax abs ([2]; solvent MeOH) | Imax emiss ([2]; solvent MeOH) | e ([2]; solvent MeOH) | fwhm ([2]; solvent MeOH) | F ([2]; solvent MeOH) | SMILES | other results |
| --- | --- | --- | --- | --- | --- | --- | --- | --- | --- | --- | --- |
| 537 nm | 456 nm | 52423 | 52 nm | 0.85 ± 0.01 | – | – | – | – | – | CCC(C)Nc1c2ccc(=[N+]3CCCCC3)cc-2oc2cc(N3CCCCC3)ccc12.O=S(=O)([O-])C(F)(F)F (racemic) [9c] | – |
| – | – | – | – | – | 477 nm | 485 nm | 57286 M⁻¹ cm⁻¹ | 19 nm | 0.89 ± 0.01 | CC1=[N+]2C(=Cc3c(C)cc(C)n3[B-]2(F)F)C(=O)N1C [6a] | – |
| – | – | – | – | – | 490 nm | 521 nm | 58684 M⁻¹ cm⁻¹ | 46 nm | 0.87 ± 0.01 | Cc1cc(C)n2c1C=C1C(=O)N(C)C(c3ccccc3)=[N+]1[B-]2(F)F [6b] | – |
| – | – | – | – | – | 492 nm | 532 nm | 57303 M⁻¹ cm⁻¹ | 54 nm | 0.86 ± 0.02 | Cc1cc(C)n2c1C=C1C(=O)N(C)C(c3ccc(I)cc3)=[N+]1[B-]2(F)F [6c] | – |
| 558 nm | 499 nm | 50978 | 41 nm | 0.11 ± 0.02 | – | – | – | – | – | CCN(CC)c1c2ccc(=[N+]3CCCCC3)cc-2oc2cc(N3CCCCC3)ccc12.O=S(=O)([O-])C(F)(F)F [9b] | – |
| 544 nm | 462 nm | 62044 | 52 nm | 0.90 ± 0.02 | – | – | – | – | – | CC(Nc1c2ccc(=[N+]3CCCCC3)cc-2oc2cc(N3CCCCC3)ccc12)C(=O)OC(C)(C)C.O=S(=O)([O-])C(F)(F)F (centres unmarked) [9d] | – |
| 619 nm | 598 nm | 82617 | 38 nm | 0.79 ± 0.02 | – | – | – | – | – | O=S(=O)([O-])C(F)(F)F.c1ccc(CSc2c3ccc(=[N+]4CCCCC4)cc-3oc3cc(N4CCCCC4)ccc23)cc1 [9e] | – |
